{"source": "ChEMBL document CHEMBL2169787", "about": "“The biology and chemistry of antifungal agents: a review” (2012)", "assay_type_in_all_cases": "functional", "key": {"Candida": {"test_system": "Candida", "test": "Antifungal activity against Candida spp"}, "Cryptococcus neoformans [1]": {"test_system": "Cryptococcus neoformans", "test": "Antifungal activity against Cryptococcus neoformans after 72 hrs by NCCLS broth microdilution method"}, "Sporothrix schenckii": {"test_system": "Sporothrix schenckii", "test": "Antifungal activity against Sporothrix schenckii"}, "[2]": {"test_system": "Trichophyton mentagrophytes", "test": "Antifungal activity against Trichophyton mentagrophytes"}, "Aspergillus fumigatus [3]": {"test_system": "Aspergillus fumigatus", "test": "Antifungal activity against Aspergillus fumigatus"}, "Microsporum canis": {"test_system": "Microsporum canis", "test": "Antifungal activity against Microsporum canis"}, "Candida albicans [4]": {"test_system": "Candida albicans", "test": "Antifungal activity against Candida albicans", "details": "Candida albicans"}, "Cryptococcus neoformans [5]": {"test_system": "Cryptococcus neoformans", "test": "Antifungal activity against Cryptococcus neoformans"}, "Candida tropicalis": {"test_system": "Candida tropicalis", "test": "Antifungal activity against Candida tropicalis"}, "Pichia kudriavzevii": {"test_system": "Pichia kudriavzevii", "test": "Antifungal activity against Candida krusei"}, "Aspergillus niger [6]": {"test_system": "Aspergillus niger", "test": "Antifungal activity against Aspergillus niger"}, "Aspergillus flavus": {"test_system": "Aspergillus flavus", "test": "Antifungal activity against Aspergillus flavus; on IZ: test concentration or dose not given here", "details": "for MIC: Aspergillus flavus"}, "Trichophyton rubrum": {"test_system": "Trichophyton rubrum", "test": "Antifungal activity against Trichophyton rubrum"}, "Lasiodiplodia theobromae": {"test_system": "Lasiodiplodia theobromae", "test": "Antifungal activity against Botryodiplodia theobromae"}, "Fusarium verticillioides": {"test_system": "Fusarium verticillioides", "test": "Antifungal activity against Fusarium moniliforme"}, "Aspergillus fumigatus [7]": {"test_system": "Aspergillus fumigatus", "test": "Antifungal activity against Aspergillus fumigatus assessed as growth inhibition"}, "Aspergillus niger [8]": {"test_system": "Aspergillus niger", "test": "Antifungal activity against Aspergillus niger assessed as growth inhibition; further: test concentration or dose not given here"}, "Candida parapsilosis": {"test_system": "Candida parapsilosis", "test": "Antifungal activity against Candida parapsilosis", "details": "Lodderomyces parapsilosis"}, "Trichophyton tonsurans": {"test_system": "Trichophyton tonsurans", "test": "Antifungal activity against Trichophyton tonsurans"}, "Candida albicans [9]": {"test_system": "Candida albicans", "test": "Antifungal activity against Candida albicans CA980001"}, "Aspergillus fumigatus [10]": {"test_system": "Aspergillus fumigatus", "test": "Antifungal activity against Aspergillus fumigatus AF980003"}, "Candida albicans [11]": {"test_system": "Candida albicans", "test": "Ratio of compound MIC to itraconazole MIC for Candida albicans CA980001"}, "Aspergillus fumigatus [12]": {"test_system": "Aspergillus fumigatus", "test": "Ratio of compound MIC to itraconazole MIC for Aspergillus fumigatus AF980003"}, "Microsporum": {"test_system": "Microsporum", "test": "Antifungal activity against Microsporum […]"}, "Aspergillus fumigatus [13]": {"test_system": "Aspergillus fumigatus", "test": "Antifungal activity against Aspergillus fumigatus relative to fluconazole"}, "Candida albicans [14]": {"test_system": "Candida albicans", "test": "Antifungal activity against Candida albicans relative to fluconazole"}}, "data": [{"smiles": "CC1=NN(c2ccccc2)C(=O)C12C(C)(C(=O)OC(C)C)C2(c1ccccc1)c1ccccc1", "note": "(stereo not drawn)", "values": [{"measurement": "MIC", "setting": "Candida", "result": 25, "unit": "µg/mL"}]}, {"smiles": "CCC(c1cccc2ccccc12)N(C)C/C=C/C#CC(C)(C)C", "note": "(stereo not drawn)", "values": [{"measurement": "MIC50", "setting": "Cryptococcus neoformans [1]", "result": 0.5, "unit": "µg/mL"}]}, {"smiles": "CCN(CC)C(=O)C1(C)C2(C(=O)N(c3ccccc3)N=C2C)C1(c1ccccc1)c1ccccc1", "note": "(stereo not drawn)", "values": [{"measurement": "MIC", "setting": "Candida", "result": 25, "unit": "µg/mL"}]}, {"smiles": "COC(=O)C1(C)C2(C(=O)N(c3ccccc3)N=C2C)C1(c1ccccc1)c1ccccc1", "note": "(stereo not drawn)", "values": [{"measurement": "MIC", "setting": "Candida", "result": 25, "unit": "µg/mL"}]}, {"smiles": "COC(=O)C1C2(C(=O)N(c3ccccc3)N=C2C)C1(c1ccccc1)c1ccccc1", "note": "(stereo not drawn)", "values": [{"measurement": "MIC", "setting": "Candida", "result": 25, "unit": "µg/mL"}]}, {"smiles": "O=C1C(CO)=C(Sc2ccccc2)C(=O)c2ccccc21", "values": [{"measurement": "MIC", "setting": "Sporothrix schenckii", "result": 0.78, "unit": "µg/mL"}, {"measurement": "MIC", "setting": "[2]", "result": 0.78, "unit": "µg/mL"}, {"measurement": "MIC", "setting": "Aspergillus fumigatus [3]", "result": 0.78, "unit": "µg/mL"}, {"measurement": "MIC", "setting": "Microsporum canis", "result": 0.78, "unit": "µg/mL"}, {"measurement": "MIC", "setting": "Candida albicans [4]", "result": 0.78, "unit": "µg/mL"}, {"measurement": "MIC", "setting": "Cryptococcus neoformans [5]", "result": 0.78, "unit": "µg/mL"}]}, {"smiles": "Nc1nc(=O)[nH]cc1F", "note": "[FLUCYTOSINE]", "values": [{"measurement": "MIC", "setting": "Candida tropicalis", "result": 12.5, "unit": "µg/mL"}, {"measurement": "MIC", "setting": "Pichia kudriavzevii", "result": 12.5, "unit": "µg/mL"}, {"measurement": "MIC", "setting": "Aspergillus niger [6]; Aspergillus niger", "result": 12.5, "unit": "µg/mL"}, {"measurement": "MIC", "setting": "Aspergillus flavus", "result": 12.5, "unit": "µg/mL"}, {"measurement": "MIC", "setting": "Candida albicans [4]", "result": 12.5, "unit": "µg/mL"}]}, {"smiles": "Clc1ccc(CN(Cc2ccc(-c3ccccc3)cc2)n2ccnc2)c(Cl)c1", "values": [{"measurement": "MIC", "setting": "Trichophyton rubrum", "result": 0.8, "unit": "µg/mL"}]}, {"smiles": "O=C(Nc1ccccc1-c1nnc(-c2ccccc2)o1)c1ccccc1", "values": [{"measurement": "inhibition zone (IZ)", "setting": "Aspergillus niger [6]", "result": 15, "unit": "mm"}, {"measurement": "inhibition zone (IZ)", "setting": "Aspergillus flavus", "result": 11, "unit": "mm"}]}, {"smiles": "Fc1ccc(N2OC(c3ccccc3)CC2c2ccc(-c3ccccc3)cc2)cc1", "note": "(stereo not drawn)", "values": [{"measurement": "MIC", "setting": "Lasiodiplodia theobromae", "result": 2.5, "unit": "µg/mL"}, {"measurement": "MIC", "setting": "Aspergillus flavus", "result": 2.5, "unit": "µg/mL"}, {"measurement": "MIC", "setting": "Fusarium verticillioides", "result": 2.5, "unit": "µg/mL"}]}, {"smiles": "N=C1SC(c2ccc(Cl)cc2)c2cnn(C(=O)c3ccc(Cl)cc3)c2C1=N", "note": "(stereo not drawn)", "values": [{"measurement": "growth inhibition (GI)", "setting": "Aspergillus fumigatus [7]", "result": 61, "unit": "%"}, {"measurement": "growth inhibition (GI)", "setting": "Aspergillus niger [8]", "result": 60, "unit": "%"}]}, {"smiles": "CCCCOc1ccccc1N1CCN(CCc2nnn(C(C)C(O)(Cn3cncn3)c3ccc(F)cc3F)n2)CC1", "note": "(stereo not drawn)", "values": [{"measurement": "MIC", "setting": "Candida tropicalis", "result": 1, "unit": "µg/mL"}, {"measurement": "MIC", "setting": "Candida parapsilosis", "result": 1, "unit": "µg/mL"}, {"measurement": "MIC", "setting": "Candida albicans [4]", "result": 1, "unit": "µg/mL"}, {"measurement": "MIC", "setting": "Cryptococcus neoformans [5]", "result": 1, "unit": "µg/mL"}]}, {"smiles": "Cc1ncc([N+](=O)[O-])n1CC(O)CCl", "note": "(stereo not drawn) [ORNIDAZOLE]", "values": [{"measurement": "MIC", "setting": "Trichophyton tonsurans", "result": 0.8, "unit": "µg/mL"}]}, {"smiles": "CC1=NN(c2ccccc2)C(=O)C12C(C(=O)OC(C)(C)C)C2(c1ccccc1)c1ccccc1", "note": "(stereo not drawn)", "values": [{"measurement": "MIC", "setting": "Candida", "result": 25, "unit": "µg/mL"}]}, {"smiles": "Clc1ccccc1Cn1cc(Cn2ccnc2)c2cc(Br)ccc21", "values": [{"measurement": "MIC", "setting": "Candida albicans [9]", "result": 8, "unit": "µg/mL"}, {"measurement": "MIC", "setting": "Aspergillus fumigatus [10]", "result": 8, "unit": "µg/mL"}, {"measurement": "Ratio", "setting": "Candida albicans [11]", "result": 16}, {"measurement": "Ratio", "setting": "Aspergillus fumigatus [12]", "result": 16}]}, {"smiles": "OC(CN1CCN(c2ccc(OCc3ccc(F)cc3)cc2)CC1)(Cn1cncn1)c1ccccc1", "note": "(stereo not drawn)", "values": [{"measurement": "MIC", "setting": "Microsporum", "result": 0.0625, "unit": "µg/mL"}, {"measurement": "MIC", "setting": "Aspergillus fumigatus [3]", "result": 0.0625, "unit": "µg/mL"}, {"measurement": "MIC", "setting": "Trichophyton rubrum", "result": 0.0625, "unit": "µg/mL"}, {"measurement": "MIC", "setting": "Candida tropicalis", "result": 0.0625, "unit": "µg/mL"}, {"measurement": "MIC", "setting": "Candida parapsilosis", "result": 0.0625, "unit": "µg/mL"}, {"measurement": "MIC", "setting": "Cryptococcus neoformans [5]", "result": 0.0625, "unit": "µg/mL"}]}, {"smiles": "OCC1CC(c2ccc(-c3ccccc3)cc2)N(c2ccc(F)cc2)O1", "note": "(stereo not drawn)", "values": [{"measurement": "MIC", "setting": "Lasiodiplodia theobromae", "result": 2.5, "unit": "µg/mL"}, {"measurement": "MIC", "setting": "Aspergillus flavus", "result": 2.5, "unit": "µg/mL"}, {"measurement": "MIC", "setting": "Fusarium verticillioides", "result": 2.5, "unit": "µg/mL"}]}, {"smiles": "COc1ccc(N2OC(CO)CC2c2ccc(-c3ccccc3)cc2)cc1", "note": "(stereo not drawn)", "values": [{"measurement": "MIC", "setting": "Lasiodiplodia theobromae", "result": 2.5, "unit": "µg/mL"}, {"measurement": "MIC", "setting": "Aspergillus flavus", "result": 2.5, "unit": "µg/mL"}, {"measurement": "MIC", "setting": "Fusarium verticillioides", "result": 2.5, "unit": "µg/mL"}]}, {"smiles": "Clc1ccc(COC(Cn2ccnc2)c2ccc(Cl)cc2Cl)c(Cl)c1", "note": "(stereo not drawn) [MICONAZOLE]", "values": [{"measurement": "MIC", "setting": "Trichophyton rubrum", "result": 0.4, "unit": "µg/mL"}, {"measurement": "MIC", "setting": "Trichophyton tonsurans", "result": 0.2, "unit": "µg/mL"}, {"measurement": "MIC", "setting": "Candida", "result": 2, "unit": "µg/mL"}]}, {"smiles": "O=C(Nc1ccccc1-c1nnc(-c2ccc(O)cc2)o1)c1ccccc1", "values": [{"measurement": "inhibition zone (IZ)", "setting": "Aspergillus niger [6]", "result": 15, "unit": "mm"}, {"measurement": "inhibition zone (IZ)", "setting": "Aspergillus flavus", "result": 11, "unit": "mm"}]}, {"smiles": "CCCCCCCCCC1C=C(CCC2C(OC)OC3COC(c4ccccc4)OC3C2CCC2CN(CCCCCCCCC)N=N2)N=N1", "note": "(stereo not drawn)", "values": [{"measurement": "fold change (FC)", "setting": "Aspergillus fumigatus [13]", "result": 14}, {"measurement": "fold change (FC)", "setting": "Candida albicans [14]", "result": 14}]}, {"smiles": "COC(=O)Nc1nc2ccccc2[nH]1", "note": "[CARBENDAZIM]", "values": [{"measurement": "growth inhibition (GI)", "setting": "Aspergillus fumigatus [7]", "result": 92, "unit": "%"}, {"measurement": "growth inhibition (GI)", "setting": "Aspergillus niger [8]", "result": 90, "unit": "%"}]}, {"smiles": "C[C@@H]1[C@H](O)[C@@H](C)/C=C/C=C/C=C/C=C/C=C/C=C/C=C/[C@H](O[C@@H]2O[C@H](C)[C@@H](O)[C@H](N)[C@@H]2O)C[C@@H]2O[C@](O)(C[C@@H](O)C[C@@H](O)[C@H](O)CC[C@@H](O)C[C@@H](O)CC(=O)O[C@H]1C)C[C@H](O)[C@H]2C(=O)O", "note": "[AMPHOTERICIN B]", "values": [{"measurement": "MIC", "setting": "Cryptococcus neoformans [5]", "result": 0.13, "unit": "µg/mL"}]}, {"smiles": "O=C(O)CCSC1=C(CO)C(=O)c2ccccc2C1=O", "values": [{"measurement": "MIC", "setting": "Sporothrix schenckii", "result": 0.78, "unit": "µg/mL"}, {"measurement": "MIC", "setting": "[2]", "result": 0.78, "unit": "µg/mL"}, {"measurement": "MIC", "setting": "Aspergillus fumigatus [3]", "result": 0.78, "unit": "µg/mL"}, {"measurement": "MIC", "setting": "Microsporum canis", "result": 0.78, "unit": "µg/mL"}, {"measurement": "MIC", "setting": "Candida albicans [4]", "result": 0.78, "unit": "µg/mL"}, {"measurement": "MIC", "setting": "Cryptococcus neoformans [5]", "result": 0.78, "unit": "µg/mL"}]}, {"smiles": "CCOC(=O)C1C2(C(=O)N(c3ccccc3)N=C2C)C1(c1ccccc1)c1ccccc1", "note": "(stereo not drawn)", "values": [{"measurement": "MIC", "setting": "Candida", "result": 25, "unit": "µg/mL"}]}]}
